This note sets out measurements from ChEMBL document CHEMBL4421717, “Antagonists and agonists of bitter taste receptors and uses thereof” (2012).

The structures appear in SMILES notation. The source made the active and inactive calls. The rule behind the calls is not given here.

Common to all, as to format: functional, cell-based
For assay [1], the target named is T1, Taste receptor type 2 member 46 (Homo sapiens, UniProt P59540).
T1 sequence (P59540 whole entry): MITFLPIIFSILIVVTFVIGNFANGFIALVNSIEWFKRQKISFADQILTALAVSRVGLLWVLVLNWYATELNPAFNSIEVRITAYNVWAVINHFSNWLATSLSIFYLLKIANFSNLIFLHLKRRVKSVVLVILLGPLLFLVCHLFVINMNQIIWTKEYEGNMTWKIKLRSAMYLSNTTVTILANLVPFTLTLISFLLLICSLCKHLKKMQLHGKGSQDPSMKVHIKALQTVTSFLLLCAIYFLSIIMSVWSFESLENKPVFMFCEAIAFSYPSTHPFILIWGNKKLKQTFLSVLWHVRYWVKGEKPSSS
The assay can be described thus: Antagonist activity at recombinant human N-terminal rat ST3 receptor-fused TAS2R46 expressed in HEK293T cells co-expressing Galpha16gust44 assessed as inhibition of 300 uM picrotoxinin-induced intracellular calcium level 100 uM by FLIPR assay. Background: Calcium assays in cells follow changes in intracellular calcium, usually with a dye or a luminescent sensor.

In assay [2] the target is T2, Taste receptor type 2 member 1 (Homo sapiens) (UniProt Q9NYW7).
T2 sequence (whole entry): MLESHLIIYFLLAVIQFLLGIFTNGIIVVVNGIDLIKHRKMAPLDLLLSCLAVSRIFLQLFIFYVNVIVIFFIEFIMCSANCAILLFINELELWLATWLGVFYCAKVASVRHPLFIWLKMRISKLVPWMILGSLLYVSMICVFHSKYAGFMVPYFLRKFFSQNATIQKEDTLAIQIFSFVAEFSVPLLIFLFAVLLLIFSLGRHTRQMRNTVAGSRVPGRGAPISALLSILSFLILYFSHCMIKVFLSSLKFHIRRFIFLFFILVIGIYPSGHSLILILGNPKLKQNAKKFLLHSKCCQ
The assay can be described thus: Agonist activity at recombinant human N-terminal rat ST3 receptor-fused TAS2R1 expressed in HEK293T cells co-expressing Galpha16gust44 assessed as effect on intracellular calcium level at 100 uM by FLIPR assay.

Assay [3] has as its target T3, Taste receptor type 2 member 3 (Homo sapiens) (UniProt Q9NYW6).
T3 sequence (whole entry): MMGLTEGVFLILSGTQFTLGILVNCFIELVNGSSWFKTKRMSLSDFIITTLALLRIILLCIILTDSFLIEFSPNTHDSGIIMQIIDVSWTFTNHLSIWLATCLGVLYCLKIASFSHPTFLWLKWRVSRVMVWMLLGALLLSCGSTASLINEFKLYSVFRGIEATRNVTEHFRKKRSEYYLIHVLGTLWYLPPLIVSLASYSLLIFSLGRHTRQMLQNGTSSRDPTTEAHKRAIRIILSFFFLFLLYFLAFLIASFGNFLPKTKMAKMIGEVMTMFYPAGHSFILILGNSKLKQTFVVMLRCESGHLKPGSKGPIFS
The assay can be described thus: Agonist activity at recombinant human N-terminal rat ST3 receptor-fused TAS2R3 expressed in HEK293T cells co-expressing Galpha16gust44 assessed as effect on intracellular calcium level at 100 uM by FLIPR assay.

Assay [4] deals with T4, Taste receptor type 2 member 8 (Homo sapiens) (UniProt Q9NYW2).
T4 sequence (whole entry): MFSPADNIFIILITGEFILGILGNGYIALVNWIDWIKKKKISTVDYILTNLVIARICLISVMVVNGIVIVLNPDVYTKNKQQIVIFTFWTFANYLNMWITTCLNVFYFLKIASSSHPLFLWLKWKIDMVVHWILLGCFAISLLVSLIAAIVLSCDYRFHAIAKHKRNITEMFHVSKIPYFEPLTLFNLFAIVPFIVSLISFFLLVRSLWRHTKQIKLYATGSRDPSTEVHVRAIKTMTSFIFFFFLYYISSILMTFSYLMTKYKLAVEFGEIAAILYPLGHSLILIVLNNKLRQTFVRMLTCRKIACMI
The assay can be described thus: Agonist activity at recombinant human N-terminal rat ST3 receptor-fused TAS2R8 expressed in HEK293T cells co-expressing Galpha16gust44 assessed as effect on intracellular calcium level at 100 uM by FLIPR assay.

The target of assay [5] is T5, Taste receptor type 2 member 43 (Homo sapiens) (UniProt P59537).
T5 sequence (whole entry): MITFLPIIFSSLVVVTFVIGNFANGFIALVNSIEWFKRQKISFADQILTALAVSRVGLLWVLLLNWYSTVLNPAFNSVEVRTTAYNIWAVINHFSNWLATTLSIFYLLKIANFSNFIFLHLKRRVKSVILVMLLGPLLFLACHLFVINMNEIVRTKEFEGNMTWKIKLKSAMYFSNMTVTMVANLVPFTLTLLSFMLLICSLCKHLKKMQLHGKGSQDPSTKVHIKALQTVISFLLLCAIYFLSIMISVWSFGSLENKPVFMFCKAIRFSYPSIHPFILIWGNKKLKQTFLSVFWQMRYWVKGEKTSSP
As to the kind of experiment: Agonist activity at recombinant human N-terminal rat ST3 receptor-fused TAS2R43 expressed in HEK293T cells co-expressing Galpha16gust44 assessed as effect on intracellular calcium level at 100 uM by FLIPR assay.

Assay [6] concerns the target Taste receptor type 2 member 42 (Homo sapiens) (UniProt Q7RTR8). The assay can be described thus: Agonist activity at recombinant human N-terminal rat ST3 receptor-fused TAS2R42 expressed in HEK293T cells co-expressing Galpha16gust44 assessed as effect on intracellular calcium level at 100 uM by FLIPR assay.
Assay [7] deals with T6, Taste receptor type 2 member 30 (Homo sapiens) (UniProt P59541).
T6 sequence (whole entry): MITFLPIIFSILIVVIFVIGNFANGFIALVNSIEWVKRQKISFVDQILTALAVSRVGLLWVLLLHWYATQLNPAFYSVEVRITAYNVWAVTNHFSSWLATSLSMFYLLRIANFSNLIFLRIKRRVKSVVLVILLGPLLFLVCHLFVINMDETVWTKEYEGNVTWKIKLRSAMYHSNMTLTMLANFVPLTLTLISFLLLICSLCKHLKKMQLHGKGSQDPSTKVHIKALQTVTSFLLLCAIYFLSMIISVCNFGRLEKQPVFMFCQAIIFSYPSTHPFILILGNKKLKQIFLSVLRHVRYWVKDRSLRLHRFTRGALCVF
The assay can be described thus: Agonist activity at recombinant human N-terminal rat ST3 receptor-fused TAS2R47 expressed in HEK293T cells co-expressing Galpha16gust44 assessed as effect on intracellular calcium level at 100 uM by FLIPR assay.

Assay [8] has as its target Taste receptor type 2 member 31 (Homo sapiens, UniProt P59538). The assay can be described thus: Agonist activity at recombinant human N-terminal rat ST3 receptor-fused TAS2R44 expressed in HEK293T cells co-expressing Galpha16gust44 assessed as effect on intracellular calcium level by FLIPR assay.
Assay [9] deals with Taste receptor type 2 member 31 (Homo sapiens) (UniProt P59538). As to the kind of experiment: Agonist activity at recombinant human N-terminal rat ST3 receptor-fused TAS2R44 expressed in HEK293T cells co-expressing Galpha16gust44 assessed as effect on intracellular calcium level at 100 uM by FLIPR assay.
For assay [10], the target named is Taste receptor type 2 member 7 (Homo sapiens) (UniProt Q9NYW3). The assay can be described thus: Agonist activity at recombinant human N-terminal rat ST3 receptor-fused TAS2R7 expressed in HEK293T cells co-expressing Galpha16gust44 assessed as effect on intracellular calcium level at 100 uM by FLIPR assay.
Sequence of Taste receptor type 2 member 7 (Homo sapiens) (Q9NYW3 whole entry, the tested form may be a part): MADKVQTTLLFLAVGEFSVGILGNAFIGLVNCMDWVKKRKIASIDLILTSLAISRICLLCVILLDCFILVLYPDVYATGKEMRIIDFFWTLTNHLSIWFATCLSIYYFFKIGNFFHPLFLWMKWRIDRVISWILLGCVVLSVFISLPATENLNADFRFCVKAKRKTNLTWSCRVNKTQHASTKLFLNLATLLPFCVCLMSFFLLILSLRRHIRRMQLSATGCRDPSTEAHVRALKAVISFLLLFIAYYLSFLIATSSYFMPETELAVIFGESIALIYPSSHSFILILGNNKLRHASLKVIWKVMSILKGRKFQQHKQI

Sequence of Taste receptor type 2 member 42 (Homo sapiens) (Q7RTR8 whole entry, the tested form may be a part): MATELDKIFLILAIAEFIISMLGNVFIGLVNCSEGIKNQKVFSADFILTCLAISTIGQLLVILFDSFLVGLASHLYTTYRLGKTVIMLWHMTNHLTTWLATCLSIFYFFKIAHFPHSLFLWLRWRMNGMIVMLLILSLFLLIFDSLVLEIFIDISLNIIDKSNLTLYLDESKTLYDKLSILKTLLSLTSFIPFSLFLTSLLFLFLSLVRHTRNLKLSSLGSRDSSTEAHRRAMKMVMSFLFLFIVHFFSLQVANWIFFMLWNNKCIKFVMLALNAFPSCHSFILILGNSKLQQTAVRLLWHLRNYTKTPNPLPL
Sequence of Taste receptor type 2 member 31 (P59538 whole entry, the tested form may be a part): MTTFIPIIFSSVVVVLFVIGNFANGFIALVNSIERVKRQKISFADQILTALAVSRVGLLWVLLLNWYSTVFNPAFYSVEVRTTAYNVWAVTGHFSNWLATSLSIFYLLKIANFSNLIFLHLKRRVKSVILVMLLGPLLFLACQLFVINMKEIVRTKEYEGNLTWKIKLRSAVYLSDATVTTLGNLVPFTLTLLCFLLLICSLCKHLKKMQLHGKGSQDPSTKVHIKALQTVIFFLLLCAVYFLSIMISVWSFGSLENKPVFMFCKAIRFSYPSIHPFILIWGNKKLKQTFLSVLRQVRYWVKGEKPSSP
Sequence of Taste receptor type 2 member 31 (Homo sapiens) (P59538 whole entry, the tested form may be a part): as above

With `C/C1=C\C[C@H](O)[C@@H](C)C[C@H]2OC(=O)[C@@H](C)C2CC1` (stereo not given in full), the IC50 in assay [1] turned out to be 22.9 µM.

In the case of `C/C1=C\C[C@H](O)/C(C)=C/[C@H]2OC(=O)[C@@H](C)C2CC1` (stereo not given in full), the result in assay [2], in assay [4], in assay [9] and in assay [10] was Active. The outcome in assay [3], in assay [5], in [6] and in assay [7] was inactive. In addition, the EC50 in assay [8] turned out to be 31.5 µM.

As a reminder, the IC50 is the concentration at which inhibition is half-maximal. As usually defined, the EC50 is the concentration giving half of the maximal effect.
